Data published in paper PMC8306139, “A Novel Dialkylamino-Functionalized Chalcone, DML6, Inhibits Cervical Cancer Cell Proliferation, In Vitro, via Induction of Oxidative Stress, Intrinsic Apoptosis and Mitotic Catastrophe” (Molecules, 2021).
Read-outs that look alike come from different tables or passages of the source.

Columns and labels:
OV2008 cells [1] = test: Nuclear staining with Hoechst dye; assay type: cell-based
Procedure: Nuclear fragmentation and chromatin condensation were detected using the Hoechst 33258 DNA dye as previously described. OV2008 cells were seeded at a density of 250,000 cells/mL in 6-well plates and incubated overnight at 37 °C. The next day, the cells were incubated with the vehicle (DMEM media with 10% FBS and 1% penicillin and streptomycin), 5 or 20 μM of DML6 and further incubated overnight at 37 °C. The cells were fixed and stained with the Hoechst 33258 DNA dye for at least 30 min. The stained nucleus fluorescence was detected using an EVOS digital microscope at wavelengths of 460–490 nm.

[2] = system: Chinese hamster ovary cells (CHO)
Procedure: (§1) The concentration of the tested compounds that produced a 50% inhibition of cell growth (IC50) was determined.
(§2) A panel of cancer cell lines, including cervical (OV2008 and HeLa), breast (MDA-MB-231), lung (A549) and colon (LOVO), prostate (DU145), human embryonic kidney cells (HEK293), human colon fibroblast cells (CRL1459), and Chinese hamster ovary cells (CHO), were grown as adherent monolayers in flasks containing Dulbecco’s modified Eagle medium (DMEM), supplemented with 10% fetal bovine serum (FBS) and 1% penicillin and streptomycin, in a humidified incubator with 5% CO2 at 37 °C.
The cells were seeded evenly (180 μL/well) in 96-well plates, at a density of 3000–5000 cells/well and incubated with serial dilutions of the compounds ranging from 0.1 to 100 μM. […] Cytation™ 5 and Cytation™ 7 multi-mode detector (Bio Tek Instruments, Winooski, VT, USA) was used to determine the absorbance readings at a wavelength of 570 nm. The IC50 values were determined based on 3 separate experiments, with each experiment carried out in triplicate. The selectivity of the compounds was determined by comparing their IC50 values in cervical cancer compared to the normal epithelial cell lines, HEK293, CHO, and CRL1459.

HEK293 = test: MTT assay, HEK293; assay type: cell-based, human; details: read-out: IC50 ± SD Kidney HEK293
Procedure: as §1, §2
The cells were seeded evenly (180 μL/well) in 96-well plates, at a density of 3000–5000 cells/well and incubated with serial dilutions of the compounds ranging from 0.1 to 100 μM. The MTT dye (4 mg/ml) was added after 72 h of incubation and incubated with the cells for an additional 4 h at 37 °C, allowing the viable cells to biotransform the yellow-colored MTT into dark-blue formazan crystals. Following incubation, the medium was aspirated, and the formazan crystals were dissolved by adding 100 μL of DMSO to each well. Cytation™ 5 and Cytation™ 7 multi-mode detector (Bio Tek Instruments, Winooski, VT, USA) was used to determine the absorbance readings at a wavelength of 570 nm. The IC50 values were determined based on 3 separate experiments, with each experiment carried out in triplicate.

OV2008 = test: MTT assay, OV2008; assay type: cell-based; details: 72 h, read-out: IC50 ± SD Cervical OV2008
Procedure: as §1, §2
(§3) The cells were seeded evenly (180 μL/well) in 96-well plates, at a density of 3000–5000 cells/well and incubated with serial dilutions of the compounds ranging from 0.1 to 100 μM. The MTT dye (4 mg/ml) was added after 72 h of incubation and incubated with the cells for an additional 4 h at 37 °C, allowing the viable cells to biotransform the yellow-colored MTT into dark-blue formazan crystals. Following incubation, the medium was aspirated, and the formazan crystals were dissolved by adding 100 μL of DMSO to each well. Cytation™ 5 and Cytation™ 7 multi-mode detector (Bio Tek Instruments, Winooski, VT, USA) was used to determine the absorbance readings at a wavelength of 570 nm. The IC50 values were determined based on 3 separate experiments, with each experiment carried out in triplicate. The selectivity of the compounds was determined by comparing their IC50 values in cervical cancer compared to the normal epithelial cell lines, HEK293, CHO, and CRL1459.

cancer cell lines = test: MTT assay, panel of cancer cell lines; assay type: cell-based
Procedure: as §1, §2, §3

OV2008 cells [3] = test: Cell cycle analysis, flow cytometry with propidium iodide; assay type: cell-based; details: for percentage of cells in the G2 phase / percentage of cells in the G1 phase: 24 h; for percentage of cells in the G2 phase: vehicle 4.18%; for percentage of cells in the G1 phase: vehicle 85.99%
Procedure: Cell cycle analysis was conducted using flow cytometry cell cycle analysis with propidium iodide (PI) as previously described. OV2008 cells were plated into 6-well plates at 2.5 × 10^5 cells/well. The cells were incubated with the vehicle, 5 or 20 μM of DML6 for 24 h. The next day, the cells were trypsinized with 0.25% trypsin, 2.21 mM EDTA, 1X, washed, counted, and resuspended in 1ml of ice-cold PBS. The cells were then stained with 200 µL (50 µg/ml stock solution propidium iodide (PI) dye and incubated for at least 15 min. The distribution of the cells in each phase of the cell cycle after incubation with the vehicle or DML6 was determined using A BD FACSCanto™ flow cytometer (BD Biosciences, Becton-Dickinson, San Jose, CA, USA) and analyzed using FCS Express 7 plus De Novo software (Glendale, CA, USA).

CN(C)c1ccc(/C=C/C(=O)c2ccc(Cl)cc2Cl)cc1 [DML6, (E)-1-[2,4-dichlorophenyl]-3-(4-(dimethylamino)phenyl)prop-2-en-1-one]
nuclear morphology (OV2008 cells [1]; 5 μM, 24 h): increased the number of cells with condensed, fragmented nuclei
nuclear morphology (OV2008 cells [1]; 20 µM): decondensed, multiple micronuclei and some single, highly condensed nuclei
percentage of apoptotic nuclei (OV2008 cells [1]; 5 and 20 μM, vs vehicle): significantly higher
cytotoxicity in normal cells, CHO [2]: did not produce significant cytotoxicity
IC50 (HEK293; 72 h): 70 ± 42.4 µM
IC50 (HEK293; Homo sapiens, HEK293, 72 h): > 65 µM
IC50 (OV2008): 7.8 µM
anti-proliferative efficacy in a wide range of cancer cell lines, compared to normal cells (cancer cell lines): moderate to good anti-proliferative efficacy
IC50 (cancer cell lines; range over the cell lines, read-out: IC50 values in all of the cancer cell lines): 7.8 to 91.9 µM
percentage of cells in the G2 phase (OV2008 cells [3]; 5 μM): 42.56%
percentage of cells in the G1 phase (OV2008 cells [3]; 5 μM): 16.01%
percentage of cells in the G2 phase (OV2008 cells [3]; 20 μM): 59.96%
percentage of cells in the G1 phase (OV2008 cells [3]; 20 μM): 27.84%
change of percentage of cells in the sub G1 phase (OV2008 cells [3]; 5 or 10 µM, vs vehicle): neither 5 or 10 µM of DML6 significantly altered
